From patent US7709471B2, “Compounds” (AstraZeneca AB, priority 2006, dated 2010) come the findings set out here.

What is called IC50 is the midpoint of a concentration-inhibition curve.

Each structure is given as a SMILES string. Structures can show the parent of a compound that is named as a salt.

Experiment [1] has as its target recombinant Plk1 (Homo sapiens, UniProt P53350). As to the kind of experiment: In Vitro Plk1 Enzyme Assay (SPA, GST-Cdc25C phosphorylation). It is filed as biochemical. The conditions noted are these: ATP 64 nM, 90 minutes, read-out: IC50 (Plk1 enzyme inhibition).
The subject of experiment [2] is human colon tumour cell line HT29. As to the kind of experiment: Cellular Assay (phosphohistone H3 Ser10 mitotic marker, HT29). It is filed as cell-based. The conditions noted are these: HT-29, 24 h, HT29 cells, read-out: IC50 (cellular assay, phosphohistone H3).
Description: Chromosome condensation in mitosis is accompanied by phosphorylation of histone H3 on serine 10.
After 24 hours, cells were fixed in 3.7% (v/v) formaldehyde then permeabilised and blocked for 10 minutes in 100 μl 0.5% (v/v) Triton X-100, 1% (w/v) bovine serum albumin (BSA) in phosphate buffered saline (PBS). […] The raw assay data were analysed by non-linear regression analysis and used to determine an IC50 value for each compound.

Chain of recombinant Plk1 (P53350 whole entry): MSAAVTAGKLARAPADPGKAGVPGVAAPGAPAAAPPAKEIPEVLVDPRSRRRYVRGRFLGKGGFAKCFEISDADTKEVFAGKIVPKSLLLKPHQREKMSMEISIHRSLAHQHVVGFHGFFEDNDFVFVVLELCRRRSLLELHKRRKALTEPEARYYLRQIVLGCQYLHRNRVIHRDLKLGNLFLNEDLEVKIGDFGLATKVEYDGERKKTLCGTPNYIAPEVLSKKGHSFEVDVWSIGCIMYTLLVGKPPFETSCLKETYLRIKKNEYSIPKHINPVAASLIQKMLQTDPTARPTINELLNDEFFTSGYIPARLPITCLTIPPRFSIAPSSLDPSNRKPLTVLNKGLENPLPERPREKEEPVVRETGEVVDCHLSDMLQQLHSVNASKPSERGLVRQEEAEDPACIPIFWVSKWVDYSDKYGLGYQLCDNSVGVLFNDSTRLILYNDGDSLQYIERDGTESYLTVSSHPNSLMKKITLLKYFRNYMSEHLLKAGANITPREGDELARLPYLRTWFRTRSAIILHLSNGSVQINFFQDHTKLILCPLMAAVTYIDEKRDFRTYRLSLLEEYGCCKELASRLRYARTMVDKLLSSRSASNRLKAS

For `CN1C(=O)CCN(C2CCCC2)c2nc(Nc3cccc(S(N)(=O)=O)c3)ncc21` [Example 170, 3-[(6-cyclopentyl-2-methyl-3-oxo-2,6,8,10-tetrazabicyclo[5.4.0]undeca-8,10,12-trien-9-yl)amino]benzenesulfonamide], the IC50 is below 0.3 µM in experiment [1] and below 30 µM in experiment [2].

As for `COc1cc(C(=O)NCCN2CCN(C)CC2)ccc1Nc1ncc2c(n1)N(C1CCCC1)CCC(=O)N2C` [Example 34, 4-[(6-cyclopentyl-2-methyl-3-oxo-2,6,8,10-tetrazabicyclo[5.4.0]undeca-8,10,12-trien-9-yl)amino]-3-methoxy-N-[2-(4-methylpiperazin-1-yl)ethyl]benzamide], the concentration for half-maximal inhibition (IC50) in experiment [1] and in experiment [2] was below 0.3 µM throughout.

As for `CCN1CCC(NC(=O)c2ccc(Nc3ncc4c(n3)N(C3CCCC3)CC3(CC3)C(=O)N4C)c(Cl)c2)CC1` [Example 382, 3-chloro-4-(9′-cyclopentyl-5′-methyl-6′-oxo-5′,6′,8′,9′-tetrahydrospiro[cyclopropane-1,7′-pyrimido[5,4-b][1,4]diazepine]-2′-ylamino)-N-(1-ethylpiperidin-4-yl)benzamide], the IC50 in experiment [1] and in experiment [2] was below 0.3 µM in each case.

Take `CN1CCC(NC(=O)c2ccc(Nc3ncc4c(n3)N(c3ccccc3)CCC(=O)N4C)cc2)CC1` [Example 224, 4-[(2-methyl-3-oxo-6-phenyl-2,6,8,10-tetrazabicyclo[5.4.0]undeca-8,10,12-trien-9-yl)amino]-N-(1-methyl-4-piperidyl)benzamide]: the results for the IC50 in experiment [1] and in experiment [2] were below 0.3 µM and below 30 µM, respectively.

For the compound `CCOc1cc(C(=O)N[C@H]2C[C@H]3CCC[C@@H](C2)N3C)ccc1Nc1ncc2c(n1)N(C(C)C)CCC(=O)N2C` [Example 283, 3-ethoxy-N-[(1S,5R)-9-methyl-9-azabicyclo[3.3.1]non-7-yl]-4-[(6-methyl-5-oxo-2-propan-2-yl-2,6,9,11-tetrazabicyclo[5.4.0]undeca-8,10,12-trien-10-yl)amino]benzamide], the half-maximal inhibitory concentration (IC50) in experiment [1] and in experiment [2] was below 0.3 µM each time.

In the case of `COc1cc(C(=O)NC2CCNCC2)ccc1Nc1ncc2c(n1)N(C1CCCC1)CCC(=O)N2C` [Example 41, 4-[(6-cyclopentyl-2-methyl-3-oxo-2,6,8,10-tetrazabicyclo[5.4.0]undeca-8,10,12-trien-9-yl)amino]-3-methoxy-N-(4-piperidyl)benzamide], the half-inhibitory concentration (IC50) in experiment [1] and in experiment [2] was below 0.3 µM in each case.

On to `CCN1CCC(NC(=O)c2ccc(Nc3ncc4c(n3)N(C3CCCC3)CC3(CC3)C(=O)N4C)c(OC)c2)CC1` [Example 383, 4-(9′-cyclopentyl-5′-methyl-6′-oxo-5′,6′,8′,9′-tetrahydrospiro[cyclopropane-1,7′-pyrimido[5,4-b][1,4]diazepine]-2′-ylamino)-N-(1-ethyl-4-piperidyl)-3-methoxy-benzamide], for which the IC50 in experiment [1] was below 1 µM; in experiment [2], below 0.3 µM.

As to `CN1C(=O)CCN(C2CCCC2)c2nc(Nc3ccc(OCCN4CCOCC4)cc3)ncc21` [Example 135, 6-cyclopentyl-2-methyl-9-[[4-(2-morpholin-4-ylethoxy)phenyl]amino]-2,6,8,10-tetrazabicyclo[5.4.0]undeca-8,10,12-trien-3-one], the IC50 in experiment [1] was below 100 µM; in experiment [2], below 1 µM.

With `CC(C)N1CCC(=O)N(C)c2cnc(Nc3ccc(C(=O)NC4CCN(C)CC4)cc3Cl)nc21` [Example 203, 3-chloro-4-[(2-methyl-3-oxo-6-propan-2-yl-2,6,8,10-tetrazabicyclo[5.4.0]undeca-7,9,11-trien-9-yl)amino]-N-(1-methyl-4-piperidyl)benzamide], the IC50 in experiment [1] and in experiment [2] was below 0.3 µM in each case.

`COc1cc(C(=O)NCC(C)(C)CN(C)C)ccc1Nc1ncc2c(n1)N(C1CCCC1)CCC(=O)N2C` [Example 10, 4-[(2-Cyclopentyl-6-methyl-5-oxo-2,6,9,11-tetrazabicyclo[5.4.0]undeca-8,10,12-trien-10-yl)amino]-N-(3-dimethylamino-2,2-dimethyl-propyl)-3-methoxy-benzamide hydrochloride]: the IC50 in experiment [1] and in experiment [2] was below 0.3 µM each time.

As for `COc1cc(C(=O)NCc2ccncc2)ccc1Nc1ncc2c(n1)N(C1CCCC1)CCC(=O)N2C` [Example 80, 4-[(6-cyclopentyl-2-methyl-3-oxo-2,6,8,10-tetrazabicyclo[5.4.0]undeca-8,10,12-trien-9-yl)amino]-3-methoxy-N-(pyridin-4-ylmethyl)benzamide], the IC50 in experiment [1] is below 1 µM; in experiment [2], below 0.3 µM.

With `CCN(CC)CCCCNC(=O)c1ccc(Nc2ncc3c(n2)N(C2CCCC2)CCC(=O)N3C)c(OC)c1` [Example 30, 4-[(6-cyclopentyl-2-methyl-3-oxo-2,6,8,10-tetrazabicyclo[5.4.0]undeca-8,10,12-trien-9-yl)amino]-N-(4-diethylaminobutyl)-3-methoxy-benzamide], the IC50 in experiment [1] and in experiment [2] was below 0.3 µM each time.

As for `COc1cc(C(=O)NCCN2CCCCC2)ccc1Nc1ncc2c(n1)N(C(C)C)CCC(=O)N2C` [Example 205, 3-methoxy-4-[(2-methyl-3-oxo-6-propan-2-yl-2,6,8,10-tetrazabicyclo[5.4.0]undeca-7,9,11-trien-9-yl)amino]-N-[2-(1-piperidyl)ethyl]benzamide], the results for the IC50 in experiment [1] and in experiment [2] were below 100 µM and below 0.3 µM, respectively.

With `CN1C(=O)CCN(C2CCCC2)c2nc(Nc3ccc(C(=O)NCCN4CCOCC4)cc3Cl)ncc21` [Example 184, 3-chloro-4-[(6-cyclopentyl-2-methyl-3-oxo-2,6,8,10-tetrazabicyclo[5.4.0]undeca-8,10,12-trien-9-yl)amino]-N-(2-morpholin-4-ylethyl)benzamide], the IC50 in experiment [1] and in experiment [2] was below 1 µM throughout.

Consider `COc1cc(C(=O)NCCCN)ccc1Nc1ncc2c(n1)N(C1CCCC1)CCC(=O)N2C` [Example 42, N-(3-aminopropyl)-4-[(6-cyclopentyl-2-methyl-3-oxo-2,6,8,10-tetrazabicyclo[5.4.0]undeca-8,10,12-trien-9-yl)amino]-3-methoxy-benzamide], for which the figures for the IC50 in experiment [1] and in experiment [2] were below 0.3 µM and below 30 µM, respectively.

In the case of `COc1cc(N2CCCN(C)CC2)ccc1Nc1ncc2c(n1)N(C1CCCC1)CCC(=O)N2C` [Example 109, 6-cyclopentyl-9-[[2-methoxy-4-(4-methyl-1,4-diazepan-1-yl)phenyl]amino]-2-methyl-2,6,8,10-tetrazabicyclo[5.4.0]undeca-8,10,12-trien-3-one], the IC50 in experiment [1] is below 1 µM; in experiment [2] it was below 0.3 µM.

Take `CCN1CCC(NC(=O)c2ccc(Nc3ncc4c(n3)N(C3CCCCC3)CC3(CC3)C(=O)N4C)c(OC)c2)CC1` [Example 433, 4-(9′-cyclohexyl-5′-methyl-6′-oxo-5′,6′,8′,9′-tetrahydrospiro[cyclopropane-1,7′-pyrimido[5,4-b][1,4]diazepine]-2′-ylamino)-N-(1-ethyl-4-piperidyl)-3-methoxy-benzamide]: the results for the IC50 in experiment [1] and in experiment [2] were below 100 µM and below 0.3 µM, respectively.

In the case of `COc1cc(C(=O)NC2CCN(C)CC2)ccc1Nc1ncc2c(n1)N(CC(=N)OC(C)CC(C)C)CCC(=O)N2C` (stereo not drawn) [Example 272, 3-methoxy-4-[[6-methyl-2-[(4-methylpentan-2-yloxycarbonimidoyl)methyl]-5-oxo-2,6,9,11-tetrazabicyclo[5.4.0]undeca-7,9,11-trien-10-yl]amino]-N-(1-methyl-4-piperidyl)benzamide], the IC50 in experiment [1] was below 1 µM; in experiment [2], below 30 µM.
